Data published in publication PMC5107951 (Scientific Reports, 2016).
Where a SMILES comes first, the peptide text is derived from it. Bridges are numbered along the chain shown (N, C = ends).

Experiments:
α7 nAChR [1] = biological target: α7 nAChR (Rattus norvegicus, UniProt Q05941); experiment: cell-based
α7 nAChR [2] = biological target: α7 nAChR (Homo sapiens, UniProt P36544); experiment: cell-based; type: binding
Chain of α7 nAChR (Homo sapiens, UniProt P36544) (P36544 23-502 limits assumed): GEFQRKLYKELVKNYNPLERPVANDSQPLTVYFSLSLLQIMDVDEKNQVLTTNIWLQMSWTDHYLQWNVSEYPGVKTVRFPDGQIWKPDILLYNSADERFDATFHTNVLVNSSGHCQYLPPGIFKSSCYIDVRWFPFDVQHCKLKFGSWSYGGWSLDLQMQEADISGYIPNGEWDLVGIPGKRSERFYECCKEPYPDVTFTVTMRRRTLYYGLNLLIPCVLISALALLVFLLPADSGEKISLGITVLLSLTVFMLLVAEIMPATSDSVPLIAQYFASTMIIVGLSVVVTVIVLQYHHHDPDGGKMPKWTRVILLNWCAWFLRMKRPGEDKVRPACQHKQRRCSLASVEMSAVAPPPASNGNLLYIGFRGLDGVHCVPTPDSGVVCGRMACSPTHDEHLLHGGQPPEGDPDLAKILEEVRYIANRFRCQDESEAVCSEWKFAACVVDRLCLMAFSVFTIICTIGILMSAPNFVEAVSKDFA

Chain of α7 nAChR (Rattus norvegicus, UniProt Q05941) (Q05941 23-502 limits assumed): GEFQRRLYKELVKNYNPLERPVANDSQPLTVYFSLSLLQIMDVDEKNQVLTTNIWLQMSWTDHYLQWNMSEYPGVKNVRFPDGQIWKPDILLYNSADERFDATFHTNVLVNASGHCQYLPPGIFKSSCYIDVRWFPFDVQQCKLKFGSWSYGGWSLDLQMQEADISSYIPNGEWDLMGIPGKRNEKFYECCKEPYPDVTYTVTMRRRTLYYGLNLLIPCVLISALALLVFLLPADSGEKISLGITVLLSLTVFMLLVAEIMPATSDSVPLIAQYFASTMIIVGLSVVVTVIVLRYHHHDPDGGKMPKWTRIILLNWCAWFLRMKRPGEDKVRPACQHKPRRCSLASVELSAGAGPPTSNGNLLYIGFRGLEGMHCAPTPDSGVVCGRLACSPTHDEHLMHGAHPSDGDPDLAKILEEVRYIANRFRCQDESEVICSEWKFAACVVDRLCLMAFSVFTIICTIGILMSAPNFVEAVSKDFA

With `CC(C)C[C@@H]1NC(=O)[C@H](CCCNC(=N)N)NC(=O)[C@@H]2CSSC[C@H](NC(=O)CN)C(=O)N[C@@H](CSSC[C@@H](C(N)=O)NC(=O)[C@H](Cc3ccc(O)cc3)NC(=O)[C@H](CCCNC(=N)N)NC(=O)[C@@H]3CCCN3C(=O)[C@H](CC(N)=O)NC(=O)[C@H](CC(N)=O)NC1=O)C(=O)N[C@@H](CO)C(=O)N[C@@H](CCCNC(=N)N)C(=O)N1CCC[C@H]1C(=O)N1CCC[C@H]1C(=O)N2` [PnIA[R5, R9, L10, R14]] (H-GCCSRPPCRLNNPRYC-NH2; disulfide 2-8, 3-16) the IC50 (α7 nAChR [1]) was 17 ± 2 nM.
With `CC(C)C[C@@H]1NC(=O)[C@H](CCCNC(=N)N)NC(=O)[C@@H]2CSSC[C@H](NC(=O)CN)C(=O)N[C@@H](CSSC[C@@H](C(N)=O)NC(=O)[C@H](Cc3ccc(O)cc3)NC(=O)[C@H](CC(=O)O)NC(=O)[C@@H]3CCCN3C(=O)[C@H](CC(N)=O)NC(=O)[C@H](CC(N)=O)NC1=O)C(=O)N[C@@H](CO)C(=O)N[C@@H](CC(C)C)C(=O)N1CCC[C@H]1C(=O)N1CCC[C@H]1C(=O)N2` [PnIA[R9, L10]] (H-GCCSLPPCRLNNPDYC-NH2; disulfide 2-8, 3-16) the “displacement of [125I]-PnIA[R9, L10] by non-radioactive peptide” value (α7 nAChR [2]) was 100% and the IC50 (α7 nAChR [1]) was 27 ± 11 nM.
For `CC(C)C[C@@H]1NC(=O)[C@H](CO)NC(=O)[C@@H]2CSSC[C@@H](C(N)=O)NC(=O)[C@H](Cc3ccc(O)cc3)NC(=O)[C@H](CC(=O)O)NC(=O)[C@@H]3CCCN3C(=O)[C@H](CC(N)=O)NC(=O)[C@H](CC(N)=O)NC(=O)[C@H](C)NC(=O)[C@H](CCCNC(=N)N)NC(=O)[C@H](CSSC[C@H](NC(=O)CN)C(=O)N2)NC(=O)[C@@H]2CCCN2C(=O)[C@@H]2CCCN2C1=O` [PnIA[R9]] (H-GCCSLPPCRANNPDYC-NH2; disulfide 2-8, 3-16), the IC50 (α7 nAChR [2]) was 1490 nM and the IC50 (α7 nAChR [1]) was 27 ± 10 nM.
